Source: ChEMBL document CHEMBL1201862, “PubChem BioAssay data set” (2004)
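The compound was tested at five concentrations on cells cultured in 96-well plates, with a 48-hour exposure period. GI50 is the concentration that inhibits growth by half.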 The source made the active and inactive calls. No stated cut-off is given here; in the data, active = GI50 up to about 1.1 µM and inactive = higher.

What was measured:
Assay in all cases: NCI-60 cell line screen, 48 h
ACHN = test system: ACHN
DLD-1 = test system: DLD-1
DMS-114 = test system: DMS-114
DMS-273 = test system: DMS-273
HT-29 = test system: HT-29
IGROV-1 = test system: IGROV-1
KM-20L2 = test system: KM-20L2
LXFL 529 = test system: LXFL 529
MOLT-4 = test system: MOLT-4
NCI-H460 = test system: NCI-H460
RPMI-8226 = test system: RPMI-8226
SK-MEL-28 = test system: SK-MEL-28
TK-10 = test system: TK-10
A498 = test system: A498
CAKI-1 = test system: CAKI-1
SK-OV-3 = test system: SK-OV-3
Malme-3M = test system: Malme-3M
MCF7 = test system: MCF7
MDA-MB-231 = test system: MDA-MB-231

Measured: GI50

NC(=O)N/C=C1\C(=O)Oc2ccccc2C1=O
inactive: ACHN 48.2 µM | DLD-1 > 100 µM | DMS-114 > 100 µM | DMS-273 > 100 µM | HT-29 > 100 µM | IGROV-1 > 100 µM | KM-20L2 86.5 µM | LXFL 529 > 100 µM | MOLT-4 > 100 µM | NCI-H460 > 100 µM | RPMI-8226 > 100 µM | SK-MEL-28 73.5 µM | TK-10 > 100 µM

COc1cc(Cl)c2c3c(c(C(C)=O)oc13)CCC2
inactive: A498 > 100 µM | ACHN > 100 µM | CAKI-1 > 100 µM | DLD-1 > 100 µM | DMS-114 > 100 µM | DMS-273 > 100 µM | HT-29 > 100 µM | IGROV-1 > 100 µM | KM-20L2 > 100 µM | LXFL 529 > 100 µM | NCI-H460 > 100 µM | RPMI-8226 86.9 µM | SK-MEL-28 > 100 µM | SK-OV-3 > 100 µM | TK-10 > 100 µM

COc1cc(-c2cc(=O)c3c(O)c(OC)c(OC)c(OC)c3o2)ccc1O
inactive: A498 2.61 µM | ACHN 21.4 µM | DLD-1 23.9 µM | DMS-114 23.9 µM | DMS-273 5.08 µM | IGROV-1 4.84 µM | KM-20L2 40.2 µM | LXFL 529 16.6 µM | MOLT-4 23.1 µM | Malme-3M 28.7 µM | NCI-H460 16.2 µM | RPMI-8226 19 µM | SK-MEL-28 23.5 µM | SK-OV-3 11.2 µM | TK-10 28.2 µM

O=C(OC1C=C=CS(=O)(=O)CC#C/C=C\1)c1cnc2ccccc2n1 (centres undefined)
inactive: A498 > 100 µM | ACHN 93.1 µM | CAKI-1 > 100 µM | HT-29 > 100 µM | IGROV-1 79.6 µM | MCF7 27.5 µM | MDA-MB-231 28.8 µM | MOLT-4 50.7 µM | Malme-3M > 100 µM | NCI-H460 > 100 µM | RPMI-8226 57 µM | SK-MEL-28 > 100 µM | SK-OV-3 > 100 µM | TK-10 > 100 µM

O=C(Cc1nc2ccccc2o1)C(=O)Nc1cccc(C(F)(F)F)c1
inactive: A498 > 100 µM | ACHN > 100 µM | CAKI-1 > 100 µM | DLD-1 > 100 µM | DMS-114 > 100 µM | DMS-273 > 100 µM | HT-29 > 100 µM | IGROV-1 > 100 µM | KM-20L2 > 100 µM | LXFL 529 > 100 µM | MOLT-4 > 100 µM | Malme-3M > 100 µM | NCI-H460 > 100 µM | RPMI-8226 > 100 µM | SK-MEL-28 > 100 µM | SK-OV-3 > 100 µM | TK-10 > 100 µM

CCOC(=O)/C(=C\c1cccc(C)c1)C(C)=O
inactive: A498 13.4 µM | ACHN 22.4 µM | CAKI-1 20.9 µM | HT-29 17.9 µM | IGROV-1 15.4 µM | MCF7 13.2 µM | MDA-MB-231 12.4 µM | MOLT-4 10.2 µM | Malme-3M 14.1 µM | NCI-H460 20.8 µM | RPMI-8226 8.17 µM | SK-MEL-28 12.6 µM | SK-OV-3 25.8 µM | TK-10 16.3 µM

Cc1nc(-n2nc(-c3ccccc3)cc2-c2ccccc2)sc1C(/C=C/c1ccc([N+](=O)[O-])cc1)=N/NC(=O)c1ccncc1
inactive: A498 49.3 µM | ACHN 23.6 µM | DLD-1 11.6 µM | DMS-114 13.9 µM | HT-29 14.4 µM | IGROV-1 21.1 µM | KM-20L2 19.4 µM | LXFL 529 12.7 µM | MOLT-4 6.89 µM | Malme-3M 21.9 µM | NCI-H460 40 µM | RPMI-8226 7.16 µM | SK-MEL-28 31.1 µM | SK-OV-3 44.8 µM | TK-10 32.6 µM

O=C(CC(O)(C(F)(F)F)C(F)(F)F)C(CCCl)C(O)(C(F)(F)F)C(F)(F)F (centres undefined)
inactive: A498 25.4 µM | ACHN 30.5 µM | CAKI-1 31.5 µM | HT-29 23.8 µM | IGROV-1 52.5 µM | MCF7 85.1 µM | MDA-MB-231 65 µM | MOLT-4 71.9 µM | Malme-3M 24.7 µM | NCI-H460 15 µM | RPMI-8226 16.7 µM | SK-MEL-28 57.3 µM | SK-OV-3 45.6 µM | TK-10 55.7 µM

CC1(C)[C@@H]2CC[C@@]1(C)CN(CCC[N+](C)(C)C)C2
inactive: A498 > 100 µM | ACHN > 100 µM | CAKI-1 > 100 µM | HT-29 > 100 µM | IGROV-1 > 100 µM | MCF7 > 100 µM | MDA-MB-231 > 100 µM | MOLT-4 > 100 µM | Malme-3M > 100 µM | NCI-H460 > 100 µM | RPMI-8226 > 100 µM | SK-MEL-28 > 100 µM | SK-OV-3 > 100 µM | TK-10 > 100 µM

c1ccc2c(Cc3c[nH]c4ccccc34)c[nH]c2c1 [ARUNDINE]
inactive: A498 38.8 µM | ACHN > 100 µM | CAKI-1 15.9 µM | HT-29 15.2 µM | IGROV-1 14.7 µM | MCF7 > 100 µM | MDA-MB-231 14.3 µM | MOLT-4 13.5 µM | Malme-3M 31.3 µM | NCI-H460 19 µM | RPMI-8226 20.2 µM | SK-MEL-28 36 µM | SK-OV-3 23.7 µM | TK-10 19.4 µM

CC(=O)NC1C(Sc2ncn(C3OC(CO)C(O)C(O)C3NC(C)=O)n2)OC(CO)C(O)C1O (centres undefined)
inactive: A498 > 100 µM | ACHN > 100 µM | CAKI-1 > 100 µM | HT-29 > 100 µM | IGROV-1 > 100 µM | MCF7 > 100 µM | MDA-MB-231 > 100 µM | MOLT-4 > 100 µM | Malme-3M > 100 µM | NCI-H460 > 100 µM | RPMI-8226 > 100 µM | SK-MEL-28 > 100 µM | SK-OV-3 > 100 µM | TK-10 > 100 µM

N#Cc1c(=O)c2cc([N+](=O)[O-])ccc2n2c1[nH]c1ccccc12
inactive: A498 1.71 µM | ACHN 9.48 µM | CAKI-1 6.84 µM | HT-29 8.09 µM | IGROV-1 12.5 µM | MCF7 6.92 µM | MDA-MB-231 4.76 µM | MOLT-4 4.83 µM | Malme-3M 8.89 µM | NCI-H460 4.99 µM | RPMI-8226 1.91 µM | SK-MEL-28 4.48 µM | SK-OV-3 5.79 µM | TK-10 5.92 µM

N#Cc1c(-c2ccc([N+](=O)[O-])cc2)cc(-c2ccc(Nc3ccnc4cc(C(F)(F)F)ccc34)cc2)nc1N
inactive: A498 > 48.3 µM | ACHN 29.6 µM | CAKI-1 18.5 µM | HT-29 5.13 µM | IGROV-1 8.53 µM | MCF7 2.59 µM | MDA-MB-231 18.9 µM | MOLT-4 4.34 µM | Malme-3M 30.3 µM | NCI-H460 11.9 µM | RPMI-8226 4.27 µM | SK-MEL-28 25.5 µM | SK-OV-3 24 µM | TK-10 > 48.2 µM

COc1ccc(/C=C/C(=O)Oc2cc(O)cc(O)c2)cc1
inactive: A498 > 100 µM | ACHN 87.5 µM | CAKI-1 17.2 µM | HT-29 29.4 µM | IGROV-1 16.5 µM | MCF7 19.5 µM | MDA-MB-231 35.7 µM | MOLT-4 11.3 µM | Malme-3M 36.6 µM | NCI-H460 > 100 µM | RPMI-8226 16.3 µM | SK-MEL-28 > 100 µM | SK-OV-3 > 100 µM | TK-10 > 100 µM

O=C1N/C(=N/N=C/c2ccccc2)N/C1=C\c1c[nH]c2ccccc12
inactive: A498 > 100 µM | ACHN > 100 µM | CAKI-1 > 100 µM | HT-29 > 100 µM | IGROV-1 > 100 µM | MCF7 80.7 µM | MDA-MB-231 42.9 µM | MOLT-4 25.1 µM | Malme-3M > 100 µM | NCI-H460 61 µM | RPMI-8226 7.52 µM | SK-MEL-28 > 100 µM | SK-OV-3 > 100 µM | TK-10 > 100 µM

CC12CC(=O)C3C(CCC4=CC(=O)CCC43C)C1CC=C2CC(=O)O (centres undefined)
inactive: A498 > 100 µM | ACHN > 100 µM | CAKI-1 > 100 µM | HT-29 > 100 µM | IGROV-1 > 100 µM | MCF7 > 100 µM | MDA-MB-231 > 100 µM | MOLT-4 > 100 µM | Malme-3M > 100 µM | NCI-H460 > 100 µM | RPMI-8226 > 100 µM | SK-MEL-28 > 100 µM | SK-OV-3 > 100 µM | TK-10 > 100 µM

O=C1C=CC2(C=C1)C[C@H](NC(=O)C(F)(F)F)C(=O)O2
inactive: A498 > 100 µM | ACHN > 100 µM | CAKI-1 30.5 µM | DLD-1 22.9 µM | DMS-114 64.6 µM | HT-29 79.6 µM | KM-20L2 > 100 µM | LXFL 529 23.7 µM | MOLT-4 20.4 µM | Malme-3M 19.8 µM | NCI-H460 > 100 µM | RPMI-8226 31.3 µM | SK-MEL-28 18.5 µM | SK-OV-3 > 100 µM | TK-10 > 100 µM

COc1cc(/C=N\O)cc(/C=N/O)c1O
inactive: A498 43.8 µM | ACHN 26.2 µM | CAKI-1 28.6 µM | HT-29 39.4 µM | IGROV-1 > 100 µM | MCF7 60.8 µM | MDA-MB-231 47.3 µM | MOLT-4 25.7 µM | Malme-3M 27.7 µM | NCI-H460 40.2 µM | RPMI-8226 15.5 µM | SK-MEL-28 38.5 µM | SK-OV-3 30.3 µM | TK-10 > 100 µM

COCCCNC(=O)C1C(=O)C(=O)N(CCCOC)C1=O (centres undefined)
inactive: A498 > 100 µM | ACHN > 100 µM | CAKI-1 > 100 µM | DLD-1 > 100 µM | DMS-114 > 100 µM | DMS-273 > 100 µM | HT-29 > 100 µM | IGROV-1 > 100 µM | KM-20L2 > 100 µM | LXFL 529 > 100 µM | MOLT-4 > 100 µM | Malme-3M > 100 µM | RPMI-8226 > 100 µM | SK-MEL-28 > 100 µM | SK-OV-3 > 100 µM | TK-10 > 100 µM
